# Experimental data published in US8680153B2, “Method for correcting a lipid imbalance in a subject” (The Royal Institution for the Advancement of …, priority 2005, dated 2014).
# “Also recorded” adds a separate entry of the source.
# Key:
# ceramide levels = assay: Ceramide levels by ELISA in lung and plasma of P. aeruginosa-infected mice; format: in vivo
# Procedure: Fenretinide Diet Supplementation. Examples 2 to 6: fenretinide (Sigma-Aldrich, Oakville, ON) powder was resuspended in 95% ethanol and subsequently incorporated in the Peptamen liquid diet. It was protected from light and kept at 4° C. before being given to the mice (5 mg/kg per day per mouse). Mock-treated diets were prepared similarly by adding ethanol to the Peptamen diet but omitting the fenretinide supplementation. The diet was given every morning for 28 consecutive days with specific monitoring of the quantity consumed by the mice in each cage. Examples 7 to 12: fenretinide powder was kindly provided by Dr. Robert Smith (NIH; Bethesda, Md., USA). Fenretinide was resuspended in 95% ethanol to make a 2 μg/μL concentration. Approximately 40 μL of this preparation was incorporated into the Peptamen liquid diet (5 mg/kg per day per mouse). The prepared food containing fenretinide was then stored in the dark at 4° C. for no more than 3 hours prior to being administered to the mice. To ensure that the entire drug dose was consumed, the mice were given 10 mL of fenretinide-treated Peptamen, which represents ⅔ of the daily mouse food consumption, in the late afternoon. […] During the treatment period each mouse was kept in a separate cage (including WT mice) and was monitored to ensure that the entire amount of Peptamen containing the fenretinide or with out was consumed. […]
# [1] = tested on: cytokines/chemokines (IL-17, IL-1β, IL-6, IL-7, IL-9, IL-10, IL-15, G-CSF, MIP-1a, KC); assay: Cytokine/chemokine levels in lung homogenates of infected mice; format: in vivo
# Procedure: Lung Homogenates. Lungs from infected mice were harvested and homogenized for 60 seconds at high speed (homogenizer PT10135; Brinkmann Instruments Co., Mississauga, ON) in 4 mL of sterile PBS (INVITROGEN™). Serial, 10-fold dilutions of lung homogenates were plated on petri dishes containing TSA. The number of CFU per lung was counted after overnight incubation at 37° C. For cytokine measurements, lung homogenates were centrifuged at 1500×g at 4° C. for 10 minutes; the supernatants were then removed, aliquoted in new tubes and stored at −20° C. until assayed for cytokine concentrations.
# Cytokine/chemokine measurements. The levels of 10 cytokines/chemokines (IL-1β, IL-6, IL-7, IL-9, IL-10, IL-15, IL-17, G-CSF (granulocyte colony-stimulating factor), MIP-1a (macrophage inflammatory protein 1 alpha), and N51/KC (cytokine-induced neutrophil chemoattractant), were assessed in lung homogenates prepared from infected animals with the Mouse Cytokine/Chemokine LINCOplex kit (Linco Research, Inc, St-Charles, Mo.) using Luminex™ technology and assayed with the Luminex100LS™ system by Linco Research, Inc. The cytokine detection limit for this assay was 3.2 pg/ml.
# [2] = tested on: phospholipid-bound AA and DHA; assay: Essential fatty acid profile in plasma, biweekly treatment for 4 weeks (8 treatments); format: in vivo, mice
# Procedure: Fenretinide Diet Supplementation. Examples 2 to 6: fenretinide (Sigma-Aldrich, Oakville, ON) powder was resuspended in 95% ethanol and subsequently incorporated in the Peptamen liquid diet. It was protected from light and kept at 4° C. before being given to the mice (5 mg/kg per day per mouse). Mock-treated diets were prepared similarly by adding ethanol to the Peptamen diet but omitting the fenretinide supplementation. The diet was given every morning for 28 consecutive days with specific monitoring of the quantity consumed by the mice in each cage. Examples 7 to 12: fenretinide powder was kindly provided by Dr. Robert Smith (NIH; Bethesda, Md., USA). Fenretinide was resuspended in 95% ethanol to make a 2 μg/μL concentration. Approximately 40 μL of this preparation was incorporated into the Peptamen liquid diet (5 mg/kg per day per mouse). The prepared food containing fenretinide was then stored in the dark at 4° C. for no more than 3 hours prior to being administered to the mice. To ensure that the entire drug dose was consumed, the mice were given 10 mL of fenretinide-treated Peptamen, which represents ⅔ of the daily mouse food consumption, in the late afternoon. The remaining 5 mL of Peptamen (without fenretinide) was given the following morning. Mice were treated twice a week for 4 weeks. During the treatment period each mouse was kept in a separate cage (including WT mice) and was monitored to ensure that the entire amount of Peptamen containing the fenretinide or with out was consumed. The diet for the mock-treated control group was prepared and administered similarly to that described above, by adding the same volume of ethanol to the Peptamen diet but omitting the fenretinide supplementation.
# Fatty Acid Analysis. Minced tissues isolated from mice were immersed in 1 mM BHA in chloroform and methanol (2:1 vol). For plasma samples (mouse and human), 100 μL of plasma was added to 1 mL of BHA. Lipids were then extracted from all samples according to standard methods (Folch, et al. (1957) J. Biol. Chem. 226:497-509). Identification of phospholipids was carried out by thin-layer chromatography extraction (Van Handel & Zilversmit (1957) J. Lab. Clin. Med. 50:152-157). Also, fractionated lipids were dried and resuspended in heptane:methanol:sulfuric acid (5:1:1) for free fatty acid extraction. Diazomethane was used to esterify the fatty acids released and the esters were identified by GC/MS (Hewlett Packard 5880A, WCOT capillary column (Supelco-10, 35 m×0.5 mm, 1 μm thick)) using commercial standards (Sigma-Aldrich).
structure (smiles),measurement,setting,value
"CC1=C(/C=C/C(C)=C/C=C/C(C)=C/C(=O)Nc2ccc(O)cc2)C(C)(C)CCC1 [fenretinide, all-trans-N-(4-hydroxyphenyl) retinamide]",Increase in ceramide levels vs mock-treated controls,ceramide levels; P. aeruginosa-infected Cftr-KO mice,approximately 7 fold
same,Increase in ceramide levels vs untreated counterparts,ceramide levels; P. aeruginosa-infected WT mice,approx. 2 fold
same,"Levels of IL-1β, IL-9, KC and MIP-1a vs mock-treated","[1]; Cftr-KO mice, not statistically significant",trend towards decreased levels
same,"IL-17 level, decrease vs Cftr-KO controls","[1]; Cftr-KO mice, p=0.049",2.9 fold
same,"All cytokines tested, fenretinide-treated vs untreated",[1]; WT mice,no difference
same,"IL-6, G-CSF, IL-15, IL-10 and IL-7 levels",[1]; time point tested,not affected
same,Concentration of phospholipid-bound AA in plasma,"[2]; Cftr-KO mice, 8 treatments, p<0.05",brought down significantly; also recorded: decreased significantly
same,"Phospholipid-bound DHA, increase vs control Cftr-KO","[2]; Cftr-KO mice, plasma, 8 treatments",2 fold
same,"DHA:AA ratio, increase vs untreated Cftr-KO","[2]; Cftr-KO mice, plasma, 8 treatments, p<0.05",2 fold
same,"DHA bound in phospholipids, increase","[2]; WT and Cftr-KO mice, after 4 weeks of biweekly treatments (FIG. 14B legend)",2 fold
